Results taken from ChEMBL document CHEMBL5346937, “Repurposing 1,2,4-oxadiazoles as SARS-CoV-2 PLpro inhibitors and investigation of their possible viral entry blockade potential” (Eur J Med Chem, 2023).
pIC50: −log10 of the molar value.

What was measured:
[1] = molecular target: Spike glycoprotein/Angiotensin-converting enzyme 2 (Severe acute respiratory syndrome coronavirus 2) (UniProt Q9BYF1+P0DTC2); test: Inhibition of SARS-CoV-2 spike protein RBD- human ACE2 interaction at 10 uM pretreated with SARS-CoV-2 spike RBD for 2 hrs followed by ACE2 addition and measured after 2 hrs by […] based ELISA analysis relative to control; assay type: protein assay; details: time 4.0 hrs
A549 = test: Cytotoxicity against human […] A549 cells assessed as reduction in cell viability incubated for 72 hrs by MTT assay; assay type: functional; details: for CC50: Homo sapiens, A549
[2] = molecular target: Replicase polyprotein 1ab (Severe acute respiratory syndrome coronavirus 2) (UniProt P0DTD1); test: Inhibition of SARS-CoV-2 PLpro at 10 uM using Arg-Leu-Arg-Gly-Gly-AMC as substrate preincubated for 5 mins followed by substrate addition measured after 6 mins by fluorescence based assay relative to control; details: time 11.0 min
WI-38 = test: (§1) Cytotoxicity against human WI-38 cells assessed as reduction in cell viability incubated for 72 hrs by MTT assay; assay type: toxicity, cell-based; details: wi-38, 72 h
SARS-CoV-2 = test: Antiviral activity against SARS-CoV-2 assessed as inhibition of viral growth; assay type: functional, organism-based; details: Severe acute respiratory syndrome coronavirus 2
[3] = as §1; assay type: toxicity, cell-based; details: WI-38 cells
[4] = molecular target: Replicase polyprotein 1ab (Severe acute respiratory syndrome coronavirus 2, UniProt P0DTD1); test: Inhibition of SARS-CoV-2 PLpro using Arg-Leu-Arg-Gly-Gly-AMC as substrate preincubated for 5 mins followed by substrate addition measured after 6 mins by fluorescence based assay
[5] = Octanol/water partition coefficient, logP of the compound by HPLC analysis; assay type: physicochemical
[6] = molecular target: Spike glycoprotein/Angiotensin-converting enzyme 2 (Severe acute respiratory syndrome coronavirus 2, UniProt P0DTC2+Q9BYF1); test: Inhibition of SARS-CoV-2 spike protein RBD- human ACE2 interaction pretreated with SARS-CoV-2 spike RBD for 2 hrs followed by ACE2 addition and measured after 2 hrs by […] based ELISA analysis; assay type: protein assay
Sequence of Spike glycoprotein/Angiotensin-converting enzyme 2 (Q9BYF1 18-805 limits assumed, other chains not shown): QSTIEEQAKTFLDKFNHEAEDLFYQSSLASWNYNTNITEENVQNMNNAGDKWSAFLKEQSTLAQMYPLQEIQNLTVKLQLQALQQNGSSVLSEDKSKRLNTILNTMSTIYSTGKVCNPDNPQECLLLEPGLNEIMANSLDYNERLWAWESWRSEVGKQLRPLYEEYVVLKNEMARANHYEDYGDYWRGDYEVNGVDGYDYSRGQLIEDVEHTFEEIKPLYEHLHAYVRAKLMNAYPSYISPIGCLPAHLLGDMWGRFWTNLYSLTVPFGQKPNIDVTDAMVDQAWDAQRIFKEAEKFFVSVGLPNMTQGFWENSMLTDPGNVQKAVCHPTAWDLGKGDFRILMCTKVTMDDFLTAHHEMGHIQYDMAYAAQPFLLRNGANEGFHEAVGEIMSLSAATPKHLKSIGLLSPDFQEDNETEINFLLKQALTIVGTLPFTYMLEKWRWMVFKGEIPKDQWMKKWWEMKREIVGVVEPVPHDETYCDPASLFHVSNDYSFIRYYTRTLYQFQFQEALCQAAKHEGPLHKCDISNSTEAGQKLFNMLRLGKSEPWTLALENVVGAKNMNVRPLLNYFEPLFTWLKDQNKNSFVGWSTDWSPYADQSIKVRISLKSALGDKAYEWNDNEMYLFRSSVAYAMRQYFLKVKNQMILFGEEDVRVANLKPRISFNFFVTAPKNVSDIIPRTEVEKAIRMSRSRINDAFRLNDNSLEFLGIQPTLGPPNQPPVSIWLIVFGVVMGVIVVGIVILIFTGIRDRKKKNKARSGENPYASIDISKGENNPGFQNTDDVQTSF

SMILES	inhibition [1]	EC100 (A549)	CC50 (A549)	inhibition [2]	EC100 (WI-38)	pIC50 (SARS-CoV-2)	CC50 (WI-38)	CC50 at 72 h [3]	pIC50 ([4]; read-out: IC50)	IC50 ([4]; read-out: pIC50 (converted))	logP [5]	pIC50 ([6]; read-out: IC50)	IC50 ([6]; read-out: pIC50 (converted))
CC(=O)Oc1ccccc1-c1nc(-c2ccccc2N(C(C)=O)C(C)=O)no1	44.4%	0.207 µM	20.5 µM	17.1%	0.641 µM								
CCN(CC)CCCC(C)Nc1ccnc2cc(Cl)ccc12 (configuration not stated) [CHLOROQUINE]						5.95							
Nc1ccccc1-c1nc(-c2ccc(C(F)(F)F)cc2)no1		0.373 µM	2.37 µM	5%	1.156 µM		5.78 µM						
O=C(O)CN1C(=O)COc2ccccc2-c2nc(no2)-c2ccccc21	10.6%	3.695 µM	19.6 µM	5.9%	5.727 µM		23.8 µM						
CCOC(=O)CN1C(=O)COc2ccccc2-c2nc(no2)-c2ccccc21	15.6%	7.127 µM	14.2 µM	18.1%	6.313 µM		31.6 µM						
[N-]=[N+]=Nc1ccccc1-c1noc(-c2ccccc2O)n1		6.707 µM	28.2 µM	1.1%	7.701 µM		38.5 µM						
Nc1ccccc1-c1nc(-c2ccccc2)no1	31.4%	11.681 µM	24.7 µM	21.1%	19.059 µM		57.2 µM						
CCN(CCO)CCCC(C)Nc1ccnc2cc(Cl)ccc12 (configuration not stated) [HYDROXYCHLOROQUINE]						6.14							
Cc1ncc(COP(=O)([O-])O)c(/C=N/c2ccccc2-c2noc(-c3ccccc3O)n2)c1O.[Na+]	26.1%	2.718 µM	1.03 µM	13.9%	4.956 µM		3.21 µM						
Nc1ccccc1-c1noc(-c2ccccc2N)n1	26.1%	12.25 µM	29 µM	16.2%	9.738 µM		48.7 µM						
O=CNc1ccccc1-c1noc(-c2ccccc2O)n1	44.3%	15.708 µM	31.4 µM	35.1%	8.116 µM		40.6 µM						
Oc1ccccc1-c1noc(-c2ccccc2O)n1		3.36 µM	19.5 µM	11.7%	5.208 µM		26 µM						
Nc1ccccc1-c1noc(-c2ccccc2)n1	23.3%	5.886 µM	28.7 µM	20.8%	7.299 µM			36.5 µM					
Nc1ccccc1-c1noc(-c2ccccc2O)n1	18.1%	4.114 µM	22 µM	13.6%	6.474 µM		32.4 µM						
Nc1ccccc1-c1noc(-c2ccncc2)n1	65.6%	8.352 µM	45.8 µM	58.6%	10.356 µM		51.8 µM		5.14	7.21 µM	3.8	5.06	8.69 µM
Cc1ncc(COP(=O)([O-])O)c(/C=N/c2ccccc2-c2noc(-c3ccccc3)n2)c1O.[Na+]	36.7%	0.655 µM	6.46 µM	22.5%	2.03 µM		10.1 µM						
